Reference: patent publication US20200316051A1, “TLR7/8 ANTAGONISTS AND USES THEREOF” (Merck Patent GmbH, priority 2017, published 2020)

What was measured:
TLR7/8 [1] = assay: Cytokine production in human PBMCs stimulated with TLR7 agonist, let7c miRNA or let7/DOTAP in the presence of TLR7/8 antagonist; type: cell-based
Method: Human PBMCs were treated with TLR7 agonist (TLR7), let7c miRNA or transfected with let7c miRNA (let7/DOTAP) in the presence of TLR7/8 antagonist (Compound 467 in Table 1 above). Levels of IL-6 (FIG. 3) and IFNα (FIG. 4) were measured following overnight incubation.

TLR7/8 [2] = assay: Activation of human PBMCs by LL37 alone or in complex with GU trimer or let-7c miRNA, with or without TLR7/8 inhibitor; type: cell-based
Method: Binding of LL37 to miRNA enables delivery of miRNA to human PBMCs and stimulate TLR7/8-mediated production of cytokines. Human recombinant LL37 protein was used alone, or in a complex with GU trimer or let-7c miRNA to activate human PBMCs in the presence or absence of TLR7/8 inhibitor (Compound 467 in Table 1 above). Levels of IL-6 (FIG. 5) and IFNα (FIG. 6) were measured following overnight incubation.

## C[C@@H]1CN(c2ccc(C#N)c3nccnc23)C[C@H](CN2CCC(N3CCOCC3)CC2)O1 [Compound 467]
TLR7/8 [1]; overnight incubation (FIG. 3)
  levels of IL-6 induced by let-7 miRNA: blocks production of cytokines
TLR7/8 [1]; overnight incubation (FIG. 4)
  levels of IFNα induced by let-7 miRNA: blocks production of cytokines
TLR7/8 [2]; overnight incubation (FIG. 5)
  TLR7/8 activation by LL37-RNA complexes, levels of IL-6: the activation is suppressed
TLR7/8 [2]; overnight incubation (FIG. 6)
  TLR7/8 activation by LL37-RNA complexes, levels of IFNα: the activation is suppressed
